Molecular target: T1, human GR (Homo sapiens, UniProt P04150)
T1 construct: naturally expresses the human GR; endogenous in cells
T1 sequence (P04150 1-777): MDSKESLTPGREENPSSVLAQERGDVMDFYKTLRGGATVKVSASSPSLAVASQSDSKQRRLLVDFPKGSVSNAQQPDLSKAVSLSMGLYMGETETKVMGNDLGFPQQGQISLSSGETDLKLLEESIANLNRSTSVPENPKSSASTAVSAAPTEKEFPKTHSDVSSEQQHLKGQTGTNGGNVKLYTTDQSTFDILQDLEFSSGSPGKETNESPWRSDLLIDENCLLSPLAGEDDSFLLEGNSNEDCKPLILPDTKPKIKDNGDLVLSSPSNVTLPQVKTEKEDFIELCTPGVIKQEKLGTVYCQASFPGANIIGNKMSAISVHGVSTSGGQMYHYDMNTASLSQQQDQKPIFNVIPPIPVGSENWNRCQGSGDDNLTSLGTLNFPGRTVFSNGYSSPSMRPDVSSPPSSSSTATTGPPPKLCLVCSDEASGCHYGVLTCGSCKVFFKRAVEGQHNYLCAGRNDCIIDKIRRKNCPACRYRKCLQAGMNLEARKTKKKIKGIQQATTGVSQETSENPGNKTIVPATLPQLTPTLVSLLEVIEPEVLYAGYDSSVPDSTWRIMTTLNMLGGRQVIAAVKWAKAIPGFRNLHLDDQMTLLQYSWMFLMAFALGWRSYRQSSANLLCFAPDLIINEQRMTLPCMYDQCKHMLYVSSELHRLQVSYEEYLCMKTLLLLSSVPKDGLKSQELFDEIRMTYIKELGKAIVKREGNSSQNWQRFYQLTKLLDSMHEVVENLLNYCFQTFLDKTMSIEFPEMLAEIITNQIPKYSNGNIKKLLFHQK
Test: Transrepression assay (GITAR), TNFα-β-lactamase reporter in U937 cells
Type: cell-based
Conditions: for EC50 / Transrepression U937 Cells GITAR Emax (%): U937 cells; for EC50: IP = inflection point; for Emax: U-937, U937 cells; for Emax / Transrepression U937 Cells GITAR Emax (%): activity repressed by 100 nM dexamethasone alone set as 100%
How it was run: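 U937 cells stably carrying TNFα promoter–β-lactamase, endogenous GR, preincubated with compound 30–45 min at 37° C., then stimulated with 5 ng/ml PMA plus 100 ng/ml LPS for ~18 h. CCF2-AM read-out; repression by 100 nM dexamethasone set as 100%.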

Row | EC50 [µM] | Emax [%] | Transrepression U937 Cells GITAR Emax (%) | Structure (SMILES)
1 | 0.093 | 79 | – | CC[C@]12Cc3cnn(-c4ccc(F)cc4)c3C=C1CC[C@@]2(O)CCc1ccccn1 [Example 16, (4aS,5R)-4a-Ethyl-1-(4-fluorophenyl)-5-[2-(pyridin-2-yl)ethyl]-1,4,4a,5,6,7-hexahydrocyclopenta[f]indazol-5-ol]
2 | 0.025 | 87 | – | CC[C@]12Cc3cnn(-c4cccc(F)c4)c3C=C1CC[C@@]2(O)CCc1cccc(F)c1C(N)=O [Example 12, 2-{2-[(4aS,5R)-4a-Ethyl-1-(3-fluorophenyl)-5-hydroxy-1,4,4a,5,6,7-hexahydrocyclopenta[f]indazol-5-yl]ethyl}-6-fluorobenzamide]
3 | 0.051 | – | 86 | CC[C@]12Cc3cnn(-c4ccc(F)cc4)c3C=C1CC[C@@]2(O)CCc1ccccc1C(O)C(N)=O (stereo partly drawn) [Example 26, 2-(2-{2-[(4aS,5R)-4a-Ethyl-1-(4-fluorophenyl)-5-hydroxy-1,4,4a,5,6,7-hexahydrocyclopenta[f]indazol-5-yl]ethyl}phenyl)-2-hydroxyacetamide]
4 | 0.122 | 88 | – | N#Cc1c(F)cccc1CC[C@]1(O)CCC2=Cc3c(cnn3-c3ccccc3)C[C@@]21C1CC1 [Example 28, 2-{2-[(4aR,5R)-4a-Cyclopropyl-5-hydroxy-1-phenyl-1,4,4a,5,6,7-hexahydrocyclopenta[f]indazol-5-yl]ethyl}-6-fluorobenzonitrile]
5 | 0.095 | 87 | – | CC[C@]12Cc3cnn(-c4ccc(F)cc4)c3C=C1CC[C@@]2(O)CCc1cncc(F)c1 [Example 21, (4aS,5R)-4a-Ethyl-1-(4-fluorophenyl)-5-[2-(5-fluoropyridin-3-yl)ethyl]-1,4,4a,5,6,7-hexahydrocyclopenta[f]indazol-5-ol]
6 | 0.009 | 87 | – | CC(C)(CO)NC(=O)c1cc(F)cnc1CC[C@]1(O)CCC2=Cc3c(cnn3-c3ccc(F)cc3)C[C@@]21C1CC1 [Example 48, 2-{2-[(4aR,5R)-4a-Cyclopropyl-1-(4-fluorophenyl)-5-hydroxy-1,4,4a,5,6,7-hexahydrocyclopenta[f]indazol-5-yl]ethyl}-5-fluoro-N-(1-hydroxy-2-methylpropan-2-yl)pyridine-3-carboxamide]
7 | 0.074 | 80 | – | CC[C@]12Cc3cnn(-c4ccc(F)cc4)c3C=C1CC[C@@]2(O)CCc1cc(F)ccn1 [Example 18, (4aS,5R)-4a-Ethyl-1-(4-fluorophenyl)-5-[2-(4-fluoropyridin-2-yl)ethyl]-1,4,4a,5,6,7-hexahydrocyclopenta[f]indazol-5-ol]
8 | 0.143 | 75 | – | CC[C@]12Cc3cnn(-c4ccccc4)c3C=C1CC[C@@]2(O)CCc1ccc(F)cc1C(N)=O [Example 6]
9 | 0.011 | 74 | – | COc1cccc(CC[C@]2(O)CCC3=Cc4c(cnn4-c4ccc(F)cc4)C[C@@]32C2CC2)c1C(N)=O [Example 38, 2-{2-[(4aR,5R)-4a-Cyclopropyl-1-(4-fluorophenyl)-5-hydroxy-1,4,4a,5,6,7-hexahydrocyclopenta[f]indazol-5-yl]ethyl}-6-methoxybenzamide]
10 | 0.263 | 77 | – | CC[C@]12Cc3cnn(-c4ccc(F)cc4)c3C=C1CC[C@@]2(O)CCc1ccc(F)cn1 [Example 19, (4aS,5R)-4a-Ethyl-1-(4-fluorophenyl)-5-[2-(5-fluoropyridin-2-yl)ethyl]-1,4,4a,5,6,7-hexahydrocyclopenta[f]indazol-5-ol]
11 | 0.114 | 72 | – | Cc1ccnc(CC[C@]2(O)CCC3=Cc4c(cnn4-c4ccc(F)cc4)C[C@@]32C2CC2)c1 [Example 36, (4aR,5R)-4a-Cyclopropyl-1-(4-fluorophenyl)-5-[2-(4-methylpyridin-2-yl)ethyl]-1,4,4a,5,6,7-hexahydrocyclopenta[f]indazol-5-ol]
12 | 0.083 | 71 | – | NC(=O)c1cc(F)ccc1CC[C@]1(O)CCC2=Cc3c(cnn3-c3ccc(F)cc3)C[C@@]21C1CC1 [Example 39, 2-{2-[(4aR,5R)-4a-Cyclopropyl-1-(4-fluorophenyl)-5-hydroxy-1,4,4a,5,6,7-hexahydrocyclopenta[f]indazol-5-yl]ethyl}-5-fluorobenzamide]
13 | 0.068 | 85 | – | NC(=O)C(O)c1ccccc1CC[C@]1(O)CCC2=Cc3c(cnn3-c3ccc(F)cc3)C[C@@]21C1CC1 (single isomer, unassigned) [Example 3b]
14 | 0.08 | 82 | – | CC[C@]12Cc3cnn(-c4cccc(F)c4)c3C=C1CC[C@@]2(O)CCc1ccccc1C(N)=O [Example 11, 2-{2-[(4aS,5R)-4a-Ethyl-1-(3-fluorophenyl)-5-hydroxy-1,4,4a,5,6,7-hexahydrocyclopenta[f]indazol-5-yl]ethyl}benzamide]
15 | 0.053 | 85 | – | CC[C@]12Cc3cnn(-c4ccc(F)cc4)c3C=C1CC[C@@]2(O)CCc1ncccc1C(N)=O [Example 52, 2-{2-[(4aS,5R)-4a-Ethyl-1-(4-fluorophenyl)-5-hydroxy-1,4,4a,5,6,7-hexahydrocyclopenta[f]indazol-5-yl]ethyl}pyridine-3-carboxamide]
16 | 0.266 | 83 | – | O[C@@]1(CCc2cc(C(F)(F)F)ccn2)CCC2=Cc3c(cnn3-c3ccc(F)cc3)C[C@@]21C1CC1 [Example 32, (4aR,5R)-4a-Cyclopropyl-1-(4-fluorophenyl)-5-{2-[4-(trifluoromethyl)pyridin-2-yl]ethyl}-1,4,4a,5,6,7-hexahydrocyclopenta[f]indazol-5-ol]
17 | 0.094 | – | 80 | CC[C@]12Cc3cnn(-c4ccc(F)cc4)c3C=C1CC[C@@]2(O)CC(O)c1ccc(F)cn1 (single isomer, unassigned) [Example 69b]
18 | 0.198 | 71 | – | CC[C@]12Cc3cnn(-c4ccc(F)cc4)c3C=C1CC[C@@]2(O)CC(O)c1cncc(F)c1 (stereo partly drawn) [Example 73, (4aS,5R)-4a-Ethyl-1-(4-fluorophenyl)-5-[2-(5-fluoropyridin-3-yl)-2-hydroxyethyl]-1,4,4a,5,6,7-hexahydrocyclopenta[f]indazol-5-ol]
19 | 0.028 | 86 | – | CC[C@]12Cc3cnn(-c4ccccc4)c3C=C1CC[C@@]2(O)CCc1ccccc1C(N)=O [Example 20, 2-{2-[(4aS,5R)-4a-Ethyl-5-hydroxy-1-phenyl-1,4,4a,5,6,7-hexahydrocyclopenta[f]indazol-5-yl]ethyl}benzamide]
20 | 0.055 | 77 | – | NC(=O)c1cccnc1CC[C@]1(O)CCC2=Cc3c(cnn3-c3ccc(F)cc3)C[C@@]21C1CC1 [Example 1, 2-{2-[(4aR,5R)-4a-Cyclopropyl-1-(4-fluorophenyl)-5-hydroxy-1,4,4a,5,6,7-hexahydrocyclopenta[f]indazol-5-yl]ethyl}pyridine-3-carboxamide]
21 | 0.114 | 89 | – | CC[C@]12Cc3cnn(-c4ccccc4)c3C=C1CC[C@@]2(O)CCc1cccc(F)c1C#N [Example 15, 2-{2-[(4aS,5R)-4a-Ethyl-5-hydroxy-1-phenyl-1,4,4a,5,6,7-hexahydrocyclopenta[f]indazol-5-yl]ethyl}-6-fluorobenzonitrile]
22 | 0.012 | 85 | – | CC[C@]12Cc3cnn(-c4ccc(F)cc4)c3C=C1CC[C@@]2(O)CCc1ncccc1S(=O)(=O)C(C)C [Example 62, (4aS,5R)-4a-Ethyl-1-(4-fluorophenyl)-5-{2-[3-(propan-2-ylsulfonyl)pyridin-2-yl]ethyl}-1,4,4a,5,6,7-hexahydrocyclopenta[f]indazol-5-ol]
23 | 0.12 | 71 | – | CC[C@]12Cc3cnn(-c4cccnc4)c3C=C1CC[C@@]2(O)CCc1ccc(F)cc1C#N [Example 9, 2-{2-[(4aS,5R)-4a-Ethyl-5-hydroxy-1-(pyridin-3-yl)-1,4,4a,5,6,7-hexahydrocyclopenta[f]indazol-5-yl]ethyl}-5-fluorobenzonitrile]
24 | 0.024 | 84 | – | CC[C@]12Cc3cnn(-c4ccc(F)cc4)c3C=C1CC[C@@]2(O)CCc1cccc(F)c1CC(N)=O [Example 60, 2-(2-{2-[(4aS,5R)-4a-Ethyl-1-(4-fluorophenyl)-5-hydroxy-1,4,4a,5,6,7-hexahydrocyclopenta[f]indazol-5-yl]ethyl}-6-fluorophenyl)acetamide]
25 | 0.007 | 90 | – | O=C(NC1(CO)CC1)c1ccccc1CC[C@]1(O)CCC2=Cc3c(cnn3-c3ccc(F)cc3)C[C@@]21C1CC1 [Example 46, 2-{2-[(4aR,5R)-4a-Cyclopropyl-1-(4-fluorophenyl)-5-hydroxy-1,4,4a,5,6,7-hexahydrocyclopenta[f]indazol-5-yl]ethyl}-N-[1-(hydroxymethyl)cyclopropyl]benzamide]

Reference: patent publication US20120214847A1, “2-[1-PHENYL-5-HYDROXY-4a-SUBSTITUTED-HEXAHYDROCYCLOPENTA[F]INDAZOL-5-YL]ETHYL PHENYL DERIVATIVES AS GLUCOCORTICOID RECEPTOR LIGANDS” (Merck Sharp & Dohme Corp., priority 2009, published 2012)
